ChEMBL document CHEMBL5625183, “Discovery of a novel dual-target inhibitor of CDK12 and PARP1 that induces synthetic lethality for treatment of triple-negative breast cancer” (Eur J Med Chem, 2023)
Active and inactive are the calls of the source. The calls are words filed in the database; no cut-off is given here.

Legend:
[1] = molecular target: Cyclin-dependent kinase 2 (Homo sapiens, UniProt P24941); assay: Inhibition of CDK2 (unknown origin) at 1 uM relative to control
[2] = molecular target: Cyclin-dependent kinase 12 (Homo sapiens, UniProt Q9NYV4); assay: Binding affinity to CDK12 in human MDA-MB-436 cells assessed as increase in protein thermal stabilization at 10 uM incubated for 6 hrs by CETSA based Western blot analysis; type: cell-based
MDA-MB-436 [3] = assay: Induction of cell cycle arrest in human MDA-MB-436 cells assessed as accumulation of cells at S phase at 20 uM measured after 24 hrs by PI staining based cytometry analysis (reference value: 25.43%); type: functional
MDA-MB-468 [4] = assay: Induction of apoptosis in human MDA-MB-468 cells incubated for 24 hrs by Annexin V/PI staining based flow cytometry analysis; type: functional, cell-based; conditions: dose 5-20 µM
[5] = MRT (0 to infinity) in Sprague-Dawley rat at 10 mg/kg, po measured upto 24 hrs by LC-MS/MS analysis; type: ADME, organism-based; conditions: in vivo
Mus musculus [6] = assay: In-vivo induction of DNA damage in ip dosed BALB/c mouse assessed as upregulation of gamma-H2AX level in tumor administered once daily for 16 days by Western blot analysis; type: functional, organism-based; conditions: dose 20-80 mg/kg, time 16.0 day
MDA-MB-231 [7] = assay: Antitumor activity against human MDA-MB-231 cells xenografted in ip dosed BALB/c mouse assessed as reduction in tumor growth administered once daily for 16 days; type: functional, organism-based; conditions: dose 20-80 mg/kg, time 16.0 day
MDA-MB-231 [8] = assay: Induction of cell cycle arrest in human MDA-MB-231 cells assessed as accumulation of cells at G2 phase at 20 uM measured after 24 hrs by PI staining based cytometry analysis (reference value: 8.44 %); type: functional
[9] = AUC (0 to infinity) in Sprague-Dawley rat at 10 mg/kg, po measured upto 24 hrs by LC-MS/MS analysis; type: ADME, organism-based; conditions: in vivo
MDA-MB-231 [10] = assay: Antitumor activity against human MDA-MB-231 cells xenografted in ip dosed BALB/c mouse assessed as upregulation of E-cadherin level administered once daily for 16 days; type: functional, organism-based; conditions: dose 20-80 mg/kg, time 16.0 day
MDA-MB-231 [11] = assay: Antitumor activity against human MDA-MB-231 cells xenografted in BALB/c mouse assessed as reduction in Ki67 expression at 20 to 80 mg/kg, ip administered once daily for 16 days by meyers hematoxylin staining based IHC analysis; type: functional, organism-based; conditions: dose 20-80 mg/kg, time 16.0 day
[12] = molecular target: T1, Dual specificity tyrosine-phosphorylation-regulated kinase 2 (Homo sapiens) (UniProt Q92630); assay: Inhibition of DYRK2 (unknown origin) at 1 uM relative to control
T1 sequence (whole entry): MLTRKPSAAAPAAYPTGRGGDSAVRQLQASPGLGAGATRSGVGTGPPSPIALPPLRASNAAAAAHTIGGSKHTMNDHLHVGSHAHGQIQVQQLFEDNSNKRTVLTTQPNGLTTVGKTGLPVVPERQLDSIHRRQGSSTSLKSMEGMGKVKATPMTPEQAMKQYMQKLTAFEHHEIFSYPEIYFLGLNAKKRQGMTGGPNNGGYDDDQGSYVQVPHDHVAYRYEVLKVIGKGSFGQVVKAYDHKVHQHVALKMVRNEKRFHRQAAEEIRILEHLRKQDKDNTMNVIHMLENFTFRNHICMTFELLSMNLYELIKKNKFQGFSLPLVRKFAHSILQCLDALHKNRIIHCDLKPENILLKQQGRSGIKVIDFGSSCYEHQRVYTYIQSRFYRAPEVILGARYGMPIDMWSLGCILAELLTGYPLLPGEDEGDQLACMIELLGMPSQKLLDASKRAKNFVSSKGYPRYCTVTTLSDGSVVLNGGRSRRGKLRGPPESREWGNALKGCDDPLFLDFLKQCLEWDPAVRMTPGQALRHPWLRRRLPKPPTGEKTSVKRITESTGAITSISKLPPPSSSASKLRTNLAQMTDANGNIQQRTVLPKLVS

[13] = Toxicity in BALB/c mouse xenografted with human MDA-MB-231 cells assessed as morphological changes in liver at 20 to 80 mg/kg, ip administered once daily for 16 days by H and E staining based analysis; type: organism-based; conditions: in vivo, 384 h, dose 20-80 mg/kg, time 16 day
[14] = molecular target: Transcription initiation factor TFIID subunit 1-like (Homo sapiens) (UniProt Q8IZX4); assay: Inhibition of TAF1L (unknown origin) at 1 uM relative to control
Mus musculus [15] = assay: In-vivo inhibition of CDK12-PARP1 in BALB/c mouse assessed as downregulation of CTD at Ser2 residue expression in tumor at 20 to 80 mg/kg, ip administered once daily for 16 days by Western blot analysis; type: functional, organism-based; conditions: dose 20-80 mg/kg, time 16.0 day
MDA-MB-231 [16] = assay: Induction of cell cycle arrest in human MDA-MB-231 cells assessed as accumulation of cells at S phase at 5 uM measured after 24 hrs by PI staining based cytometry analysis (reference value: 23.01 %); type: functional
MDA-MB-231 [17] = assay: Antitumor activity against human MDA-MB-231 cells xenografted in ip dosed BALB/c mouse assessed as downregulation of MMP-2 level administered once daily for 16 days; type: functional, organism-based; conditions: dose 20-80 mg/kg, time 16.0 day
[18] = molecular target: AP2-associated protein kinase 1 (Homo sapiens) (UniProt Q2M2I8); assay: Inhibition of AAK1 (unknown origin) at 1 uM relative to control
MDA-MB-231 [19] = assay: Antiproliferative activity against human MDA-MB-231 cells assessed as inhibition of cell growth incubated for 24 hrs by MTT assay; type: functional, cell-based; conditions: MDA-MB-231, 24 h
MDA-MB-231 [20] = assay: Induction of apoptosis in human MDA-MB-231 cells incubated for 24 hrs by Annexin V/PI staining based flow cytometry analysis; type: functional, cell-based; conditions: dose 5-20 µM
[21] = molecular target: Poly [ADP-ribose] polymerase 1 (Homo sapiens, UniProt P09874); assay: Binding affinity to PARP1 in human MDA-MB-436 cells assessed as increase in protein thermal stabilization at 10 uM incubated for 6 hrs by CETSA based Western blot analysis; type: cell-based
MDA-MB-436 [22] = assay: Antiproliferative activity against human MDA-MB-436 cells transfected with CDK12 M816A and PARP1 G863A mutant incubated for 24 hrs by MTT assay; type: functional, cell-based
MDA-MB-468 [23] = assay: Antiproliferative activity against human MDA-MB-468 cells assessed as inhibition of cell growth incubated for 24 hrs by MTT assay; type: functional, cell-based; conditions: MDA-MB-468, 24 h
MDA-MB-231 [24] = assay: Inhibition of cell migration in human MDA-MB-231 cells at 10 uM incubated for 24 hrs by transwell assay; type: functional, cell-based
MDA-MB-468 [25] = assay: […] DNA repair in human MDA-MB-468 cells assessed as decrease in RAD51 level at 10 uM incubated for 24 hrs by confocal laser scanning microscopic analysis; type: functional, cell-based
[26] = Half life in Sprague-Dawley rat 10 mg/kg, po measured upto 24 hrs by LC-MS/MS analysis; type: ADME, organism-based; conditions: in vivo
MDA-MB-436 [27] = assay: Antiproliferative activity against human MDA-MB-436 cells transfected with wild type CDK12 and PARP1 G863A mutant incubated for 24 hrs by MTT assay; type: functional, cell-based
MDA-MB-436 [28] = assay: Upregulation of gamma-H2AX expression in human MDA-MB-436 cells incubated for 24 hrs by Western blot analysis; type: functional, cell-based; conditions: dose <= 20.0 µM
MDA-MB-231 [29] = assay: Antiproliferative activity against human MDA-MB-231 cells transfected with wild type CDK12 and PARP1 G863A mutant incubated for 24 hrs by MTT assay; type: functional, cell-based

Sequence of Transcription initiation factor TFIID subunit 1-like (Homo sapiens) (Q8IZX4 whole entry): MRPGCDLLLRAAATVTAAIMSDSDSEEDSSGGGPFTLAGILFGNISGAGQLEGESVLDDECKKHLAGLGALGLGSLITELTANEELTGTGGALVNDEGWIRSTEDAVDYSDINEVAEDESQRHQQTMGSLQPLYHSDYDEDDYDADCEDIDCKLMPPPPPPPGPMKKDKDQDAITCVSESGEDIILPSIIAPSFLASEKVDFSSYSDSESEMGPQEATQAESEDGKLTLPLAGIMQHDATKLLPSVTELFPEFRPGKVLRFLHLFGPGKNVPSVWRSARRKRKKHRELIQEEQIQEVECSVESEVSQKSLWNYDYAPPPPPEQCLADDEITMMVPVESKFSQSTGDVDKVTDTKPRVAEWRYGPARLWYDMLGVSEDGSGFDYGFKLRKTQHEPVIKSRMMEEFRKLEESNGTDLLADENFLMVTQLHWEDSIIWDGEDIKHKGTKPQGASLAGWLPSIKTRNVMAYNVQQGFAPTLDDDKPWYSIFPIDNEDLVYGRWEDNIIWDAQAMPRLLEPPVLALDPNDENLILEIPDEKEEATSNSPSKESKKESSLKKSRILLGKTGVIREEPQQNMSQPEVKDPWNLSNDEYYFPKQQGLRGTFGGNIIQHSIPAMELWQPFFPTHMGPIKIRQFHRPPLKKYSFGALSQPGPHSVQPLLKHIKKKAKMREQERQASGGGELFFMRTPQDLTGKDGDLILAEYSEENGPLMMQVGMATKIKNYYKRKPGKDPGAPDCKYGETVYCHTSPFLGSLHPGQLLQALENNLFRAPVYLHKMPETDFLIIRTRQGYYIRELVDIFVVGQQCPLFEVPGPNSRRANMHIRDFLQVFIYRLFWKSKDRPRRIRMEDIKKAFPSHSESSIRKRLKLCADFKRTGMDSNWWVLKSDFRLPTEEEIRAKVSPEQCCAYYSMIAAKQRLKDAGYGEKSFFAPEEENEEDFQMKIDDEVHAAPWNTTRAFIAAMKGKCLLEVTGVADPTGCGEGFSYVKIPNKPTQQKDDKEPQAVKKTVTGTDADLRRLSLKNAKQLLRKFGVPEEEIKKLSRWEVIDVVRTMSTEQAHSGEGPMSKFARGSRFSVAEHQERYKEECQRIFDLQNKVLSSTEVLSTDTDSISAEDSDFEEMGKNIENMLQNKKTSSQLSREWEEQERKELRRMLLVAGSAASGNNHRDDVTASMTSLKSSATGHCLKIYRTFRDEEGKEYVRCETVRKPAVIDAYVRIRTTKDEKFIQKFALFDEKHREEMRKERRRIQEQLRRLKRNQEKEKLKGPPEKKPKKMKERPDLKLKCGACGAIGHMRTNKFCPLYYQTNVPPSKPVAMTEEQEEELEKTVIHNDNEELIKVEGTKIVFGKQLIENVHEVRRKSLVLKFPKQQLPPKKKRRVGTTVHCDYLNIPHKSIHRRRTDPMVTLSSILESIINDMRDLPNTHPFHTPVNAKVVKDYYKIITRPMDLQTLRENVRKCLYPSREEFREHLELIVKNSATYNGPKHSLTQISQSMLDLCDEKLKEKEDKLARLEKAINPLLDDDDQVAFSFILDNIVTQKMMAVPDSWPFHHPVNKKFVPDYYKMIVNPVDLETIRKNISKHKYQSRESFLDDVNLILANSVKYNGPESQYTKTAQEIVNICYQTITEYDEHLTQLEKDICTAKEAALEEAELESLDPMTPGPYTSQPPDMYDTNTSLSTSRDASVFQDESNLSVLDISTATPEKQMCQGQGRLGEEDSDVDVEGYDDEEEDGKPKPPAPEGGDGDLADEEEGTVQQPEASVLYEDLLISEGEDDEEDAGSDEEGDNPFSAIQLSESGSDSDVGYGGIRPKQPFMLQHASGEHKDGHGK
Sequence of Cyclin-dependent kinase 12 (Q9NYV4 whole entry, looked up): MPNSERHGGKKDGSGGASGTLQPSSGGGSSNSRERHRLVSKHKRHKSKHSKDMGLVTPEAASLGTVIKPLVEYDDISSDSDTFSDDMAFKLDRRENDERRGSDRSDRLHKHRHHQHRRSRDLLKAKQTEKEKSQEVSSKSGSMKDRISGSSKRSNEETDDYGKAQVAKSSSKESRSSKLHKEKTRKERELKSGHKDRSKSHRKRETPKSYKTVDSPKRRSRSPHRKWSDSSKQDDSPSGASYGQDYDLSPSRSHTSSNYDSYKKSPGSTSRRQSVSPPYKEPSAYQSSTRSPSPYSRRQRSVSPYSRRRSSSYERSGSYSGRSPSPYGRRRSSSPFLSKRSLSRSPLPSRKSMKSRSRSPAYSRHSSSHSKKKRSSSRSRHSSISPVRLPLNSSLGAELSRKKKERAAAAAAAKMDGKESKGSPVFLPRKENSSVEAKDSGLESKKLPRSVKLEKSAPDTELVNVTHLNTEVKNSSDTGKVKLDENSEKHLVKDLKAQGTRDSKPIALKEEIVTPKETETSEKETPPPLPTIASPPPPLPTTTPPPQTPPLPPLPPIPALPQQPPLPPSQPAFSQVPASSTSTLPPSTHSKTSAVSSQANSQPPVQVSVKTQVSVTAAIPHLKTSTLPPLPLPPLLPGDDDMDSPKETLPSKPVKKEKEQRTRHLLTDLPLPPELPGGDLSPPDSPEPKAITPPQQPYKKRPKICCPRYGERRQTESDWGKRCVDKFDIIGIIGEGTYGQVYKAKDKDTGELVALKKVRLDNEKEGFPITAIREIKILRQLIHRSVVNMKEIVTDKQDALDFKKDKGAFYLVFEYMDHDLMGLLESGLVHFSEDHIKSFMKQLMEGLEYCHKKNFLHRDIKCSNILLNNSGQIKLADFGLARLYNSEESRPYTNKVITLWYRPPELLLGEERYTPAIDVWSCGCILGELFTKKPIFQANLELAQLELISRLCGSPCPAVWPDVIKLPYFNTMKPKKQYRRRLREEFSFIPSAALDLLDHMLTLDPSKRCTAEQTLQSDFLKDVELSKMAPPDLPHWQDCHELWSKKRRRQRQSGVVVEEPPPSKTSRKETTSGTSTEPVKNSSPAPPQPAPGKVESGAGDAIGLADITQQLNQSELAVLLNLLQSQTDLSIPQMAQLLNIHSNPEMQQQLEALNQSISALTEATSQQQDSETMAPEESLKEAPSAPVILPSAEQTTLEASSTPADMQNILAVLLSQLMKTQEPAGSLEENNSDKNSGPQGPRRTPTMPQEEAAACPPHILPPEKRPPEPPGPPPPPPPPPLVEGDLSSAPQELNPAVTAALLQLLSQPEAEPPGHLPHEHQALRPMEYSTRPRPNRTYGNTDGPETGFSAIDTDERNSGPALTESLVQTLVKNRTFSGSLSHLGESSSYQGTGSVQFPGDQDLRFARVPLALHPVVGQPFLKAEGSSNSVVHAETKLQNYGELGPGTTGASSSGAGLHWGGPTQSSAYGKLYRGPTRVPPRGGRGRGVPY
Sequence of AP2-associated protein kinase 1 (Homo sapiens) (Q2M2I8 whole entry, looked up): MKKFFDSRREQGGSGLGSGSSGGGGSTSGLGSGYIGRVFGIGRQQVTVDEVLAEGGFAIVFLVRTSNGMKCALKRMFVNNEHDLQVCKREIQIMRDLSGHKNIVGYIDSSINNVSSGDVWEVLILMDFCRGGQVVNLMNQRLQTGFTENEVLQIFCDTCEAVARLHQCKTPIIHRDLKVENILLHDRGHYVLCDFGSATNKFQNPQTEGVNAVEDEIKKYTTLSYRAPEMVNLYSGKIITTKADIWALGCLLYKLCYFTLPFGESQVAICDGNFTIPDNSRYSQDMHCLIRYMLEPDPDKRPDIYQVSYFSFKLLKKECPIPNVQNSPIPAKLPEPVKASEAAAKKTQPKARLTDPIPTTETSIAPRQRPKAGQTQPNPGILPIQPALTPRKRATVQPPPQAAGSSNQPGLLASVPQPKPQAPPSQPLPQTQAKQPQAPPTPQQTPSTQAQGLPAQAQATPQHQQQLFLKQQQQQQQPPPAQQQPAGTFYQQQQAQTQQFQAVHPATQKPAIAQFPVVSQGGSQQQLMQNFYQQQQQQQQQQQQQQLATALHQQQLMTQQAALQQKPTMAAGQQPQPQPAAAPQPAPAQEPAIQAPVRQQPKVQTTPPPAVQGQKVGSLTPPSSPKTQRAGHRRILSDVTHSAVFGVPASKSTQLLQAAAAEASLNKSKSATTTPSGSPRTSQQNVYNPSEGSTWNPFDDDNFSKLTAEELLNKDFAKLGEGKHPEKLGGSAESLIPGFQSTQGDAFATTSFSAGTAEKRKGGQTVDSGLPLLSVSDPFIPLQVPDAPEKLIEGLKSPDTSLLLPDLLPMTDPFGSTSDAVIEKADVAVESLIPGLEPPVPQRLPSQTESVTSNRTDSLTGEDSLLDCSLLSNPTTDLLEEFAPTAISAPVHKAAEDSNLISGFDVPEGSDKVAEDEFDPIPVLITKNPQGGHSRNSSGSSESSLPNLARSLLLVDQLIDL

inhibition [1]: > 60% | Activity [2]: Active | MRT inf [5]: 4.76 h | AUC(0-inf) [9]: 71.2 ng·h/mL | inhibition [12]: > 60% | inhibition [14]: > 60% | inhibition [18]: > 60% | IC50 (MDA-MB-231 [19]): 8.5 µM | Activity [21]: Active | IC50 (MDA-MB-468 [23]): 9.7 µM | half-life [26]: 2.39 h
Structure (SMILES): NC(=O)c1cccc2[nH]c(NC(=O)c3cccc(C(=O)N4CCC(Nc5ncc(I)cn5)CC4)c3)nc12
Activity (MDA-MB-436 [3]): 21.2% | Activity (MDA-MB-468 [4]): Dose-Dependent Effect | Activity (Mus musculus [6]): Active | Activity (MDA-MB-231 [7]): Dose-Dependent Effect | Activity (MDA-MB-231 [8]): 23.42% | Activity (MDA-MB-231 [10]): Dose-Dependent Effect | Activity (MDA-MB-231 [11]): Active | Activity [13]: Non-Toxic | inhibition (Mus musculus [15]): Active | Activity (MDA-MB-231 [16]): 19.81% | Activity (MDA-MB-231 [17]): Active | Activity (MDA-MB-231 [20]): Dose-Dependent Effect | Activity (MDA-MB-436 [22]): Active | inhibition (MDA-MB-231 [24]): Active | Activity (MDA-MB-468 [25]): Active | Activity (MDA-MB-436 [27]): Active | Activity (MDA-MB-436 [28]): Dose-Dependent Effect | Activity (MDA-MB-231 [29]): Active
